For 14 compounds, TGI results are on record in PubChem BioAssay (NCI).

What all share (assay): NCI-60 cell line screen, 48 h
For test [1], the system named is NCI-H23 lung.
Test [2] concerns RPMI-8226 leukemia.
The subject of test [3] is OVCAR-4 ovarian.
The subject of test [4] is NCI-H460 lung.
Test [5] concerns A498 renal.
Test [6] relates to HCT-15 colon.
In test [7] the test system is ACHN renal.
In test [8] the test system is LOX IMVI melanoma.
Test [9] concerns HL-60(TB) leukemia.
Test [10] has as its system A549 NSCLC.
The test system of test [11] is BT-549 breast.
The test system of test [12] is SNB-75 CNS.
In test [13] the test system is HOP-62 NSCLC.
In test [14] the test system is 786-0 renal.
The test system of test [15] is CCRF-CEM leukemia.
Test [16] relates to MDA-N.
Test [17] has as its system K-562 leukemia.
Test [18] deals with NCI-H226 lung.
Test [19] deals with SF-268 CNS.
Test [20] concerns OVCAR-3 ovarian.

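Results reflect a 48-hour exposure of cells in 96-well plates to compound at five concentrations. Definition used: TGI = concentration required for complete inhibition of growth.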

On to `Cc1c(C(=O)c2ccccc2)[n+](=O)c2cc(Cl)c(Cl)cc2n1[O-]`, for which the TGI in [1] is 11.6 µM; in [2], 19.8 µM; in [3], 16.5 µM; in test [4], 30.9 µM; in test [5], 33.8 µM; in test [6] it was 4.56 µM. The TGI in [7] came to 28.5 µM; in test [8] it was 15.8 µM; in test [9], 4.82 µM; in [10], 27.5 µM; in [11] it was 31.5 µM; in [12], 15.8 µM. Also, the TGI in [13] is 29.7 µM; in [14], 29.3 µM; in [15], 71.5 µM; in test [16] it was 25.9 µM; in [17], 17.8 µM; in test [18], 7.59 µM. Also, the TGI in test [19] stood at 29.5 µM; in [20], 25 µM.
For the compound `N=c1oc2ccccc2cc1C(=O)Nc1cccc2ccccc12`, the TGI in test [1], in test [2], in test [3], in test [4], in test [5] and in test [6] was > 100 µM throughout. Moreover, the TGI in [7], in test [8], in [9], in test [10], in test [11] and in test [12] was > 100 µM each time. For the same compound, the TGI in [13], in test [14], in test [15], in test [16], in test [17] and in [18] was > 100 µM in each case. Moreover, the TGI in test [19] and in test [20] was > 100 µM throughout.
As for `COC(=O)[C@@H]1C[C@@H](O)CN1C(=O)c1ccc([N+](=O)[O-])cc1[N+](=O)[O-]`, the TGI in test [1], in test [2], in test [3], in [4], in test [5] and in test [6] was > 100 µM each time. Also, the TGI in test [7], in [8], in test [9], in test [10], in test [11] and in test [12] was > 100 µM each time. Also, the TGI in test [13], in test [14], in [15], in test [16], in test [17] and in test [18] was > 100 µM each time. In addition, the TGI in test [19] and in [20] was > 100 µM throughout.
Regarding `CSC1=NN(C(C)=O)C(C(OC(C)=O)C(OC(C)=O)C(OC(C)=O)C(COC(C)=O)OC(C)=O)S1` (centres undefined), the TGI in test [1], in test [2], in test [3], in test [4], in [5] and in [6] was > 100 µM in each case. Also, the TGI in test [7], in test [8], in test [9], in test [10], in test [11] and in test [12] was > 100 µM throughout. In addition, the TGI in [13], in test [14], in test [15], in [16], in test [17] and in test [18] was > 100 µM throughout. Also, the TGI in test [19] and in test [20] was > 100 µM each time.
Take `CN(C)c1ccc(C=Nc2ccc(-c3nc4ccccc4s3)cc2)cc1`: the TGI was 97.6 µM in [1]; > 100 µM in [2]; > 100 µM in [3]; 93.2 µM in test [4]; 37.1 µM in test [5]; > 100 µM in test [6]. Besides, the TGI in test [7] was 69 µM; in test [8], 94.8 µM; in [9] it was 0.525 µM; in [10], > 100 µM; in [11], > 100 µM; in test [12], 80.9 µM. In addition, the TGI in [13] was 82.8 µM; in [14] it was 42.8 µM; in test [15] it was 10.9 µM; in [16], > 100 µM; in test [17], > 100 µM; in test [18], > 100 µM. Further, in test [20], the TGI worked out at 57.6 µM.
For the compound `CC1(c2ccccc2)O[C@@H]2C[C@H]3[C@@H]4CCC5=CC(=O)C=C[C@]5(C)[C@@]4(F)[C@@H](O)C[C@]3(C)[C@]2(C(=O)CO)O1` (some centres undefined), the TGI came to 36.3 µM in [1]; 17.2 µM in test [2]; 28.3 µM in [3]; 29.8 µM in test [4]; 33.9 µM in test [5]; 36 µM in test [6]. Moreover, the TGI was 34.8 µM in [7]; 47.1 µM in [8]; 39.4 µM in [9]; 29.2 µM in [10]; 38.6 µM in test [11]; 44.8 µM in test [12]. Also, the TGI in test [13] turned out to be 29.2 µM; in [14], 32.2 µM; in test [16] it was 35.3 µM; in test [17], 34.4 µM; in test [18], 31 µM; in test [19], 49 µM. In [20], this compound yielded a TGI of 28.7 µM.
In the case of `O=C(Sc1c(-c2ccccc2)c(=O)n(-c2ccccc2)c(=S)n1-c1ccccc1)c1ccccc1`, the TGI in test [1], in [2], in [3], in test [4], in test [6] and in [7] was > 100 µM in each case. Also, the TGI in test [8] is > 100 µM; in [9], > 100 µM; in [10], > 100 µM; in test [11] it was > 100 µM; in [12] it was 88.2 µM; in [13], > 100 µM. Moreover, the TGI is > 100 µM in test [14]; 76.3 µM in test [15]; > 100 µM in test [16]; > 100 µM in test [17]; > 100 µM in test [18]; > 100 µM in test [19]. For the same compound, the TGI in [20] is > 100 µM.
`O=S1SC(=S)C2C=CC=NC21` (centres undefined): the TGI in test [1] is 43.1 µM; in test [2], > 100 µM; in test [3] it was > 100 µM; in [4], 37.8 µM; in [5] it was 66.1 µM; in [6], 49.2 µM. Further, the TGI in test [7] was 32.4 µM; in [8] it was 32.7 µM; in [9], > 100 µM; in test [10], 60.5 µM; in test [11] it was 33.9 µM; in test [12] it was 34.9 µM. In addition, the TGI in test [14] is 27.6 µM; in [15], > 100 µM; in [16], 27.8 µM; in [17] it was > 100 µM; in test [18], 56.4 µM; in [19], 44.6 µM. In addition, the TGI in test [20] stood at 56.2 µM.
As for `[N-]=[N+]=NC1C(O)C(CO)OC1n1ccc(N)nc1=O` (centres undefined), the TGI in [1], in [2], in test [3], in [4], in test [5] and in [6] was > 625 µM in each case. The TGI in test [7] was > 625 µM; in test [8] it was > 625 µM; in [9] it was 25.3 µM; in test [10], > 625 µM; in test [11], > 625 µM; in [12] it was > 625 µM. In addition, the TGI in [13], in test [14], in test [16], in test [17], in [18] and in test [19] was > 625 µM in each case. Moreover, in test [20], the TGI is > 595 µM.
With `COc1ccc(Cc2cc(Cc3ccc(OC)cc3)cc(Cc3ccc(OC)cc3)c2)cc1`, the TGI in test [2], in test [3], in test [4], in [5], in [6] and in test [7] was > 100 µM each time. Also, the TGI in test [8], in test [9], in test [10], in test [11], in test [12] and in test [13] was > 100 µM in each case. The TGI in test [14], in test [16], in [17], in test [18], in test [19] and in test [20] was > 100 µM each time.
As to `CN1CCN(c2cc3nc(-c4ccc(Cl)cc4)[nH]c3cc2F)CC1`, the TGI in test [1] is 34.2 µM; in test [2], 41.4 µM; in test [3], > 62.7 µM; in test [4] it was > 53.9 µM; in [5], 47.4 µM; in test [6], 17.9 µM. The TGI in [7] is 29.8 µM; in [8], > 65.6 µM; in [10], > 59 µM; in test [11] it was 31.1 µM; in test [12] it was 50.1 µM; in test [13], 30.6 µM. The TGI in test [14] came to 67.2 µM; in [15] it was 82.8 µM; in test [16] it was 50.4 µM; in [17], 28.7 µM; in test [18], 33.9 µM; in test [19], 51.3 µM. Besides, in [20], the TGI is 25.7 µM.
Turning to `c1ccc2sc(SSSc3nc4ccccc4s3)nc2c1`, the TGI in [1], in [2], in test [3], in [4], in test [5] and in test [6] was > 100 µM each time. The TGI in test [7] was > 100 µM; in test [8], 49 µM; in [9], > 100 µM; in test [10] it was > 100 µM; in test [11], > 100 µM; in test [12], > 100 µM. Besides, the TGI in test [13], in test [14], in [15], in [16], in [17] and in [18] was > 100 µM throughout. Further, the TGI in test [19] was > 100 µM.
Turning to `O=C(OCc1ccccc1)C(Cc1ccc(OCc2ccccc2)cn1)NC(=O)C(F)(F)F` (centres undefined), the TGI in test [1], in [2], in test [3], in test [4], in [5] and in [6] was > 100 µM each time. In addition, the TGI was > 100 µM in [7]; > 100 µM in test [8]; > 100 µM in [9]; > 100 µM in [10]; > 100 µM in [11]; 98.8 µM in test [12]. The TGI in test [13], in test [14], in [16], in [17], in [18] and in test [19] was > 100 µM each time. Besides, in [20], the TGI was > 100 µM.
`CC(=O)Nc1cc(Cl)cc(Cl)c1O`: the TGI in test [1], in test [2], in test [3], in [4], in test [5] and in test [6] was > 100 µM each time. The TGI in test [7], in test [9], in [10], in test [11], in [12] and in test [13] was > 100 µM in each case. Besides, the TGI in [14], in test [15], in test [16], in [17], in [18] and in test [19] was > 100 µM each time. Moreover, in [20], the TGI is > 100 µM.
